In US20110077251A1, “NOVEL 17 BETA LUPANE DERIVATIVES” (priority 2009, published 2011) one finds IC50 data, which are given here for three compounds.

Where only a bound is given, the exact number is not on record here.

Assay [1] concerns HIVIIIB. Description: HIV-1 replication in MT2 cell line without human serum (RT activity in supernatant). The format is cell-based. The note with it: Human immunodeficiency virus 1, 120 h, MT2 cells, day 5 after infection, average if tested more than once, read-out: MT2 (HIVIIIB) IC50 range. Here is the method:
HIV-1 Replication in MT2 cell line with and without 30% human serum: The cells are infected at a Multiciplicity of Infection (MOI) of 0.5 for 3 h and then washed twice with complete media to remove residual virus. Cells are then resuspended at 0.5×10^6/ml in complete medium (RPMI, 10% FBS, 1% sodium pyruvate), and seeded into 96-well plates (6.25×10^4/well). The cells are cultured in the presence or absence of various concentrations of test compounds in serial dilutions for 3 days at 37° C. The test compounds are serially diluted in complete medium supplemented or not with 30% human serum. After 3 days, 100 μL of cultured medium with cells are replaced with 120 μL of freshly diluted test compounds in complete medium containing or not 30% Human serum. The level of HIV-1 replication is determined at days 5 after infection by the presence of viral RT activity in harvested supernatant fluid. The IC50 values for the virus replication are determined by using GRAPHPAD PRISM software.
The IC50 of the compounds tested in accordance with the HIV replication activity assay MT2 (HIVIIIB) with or without human serum are represented in Table 6.

Assay [2] relates to HIVIIIB. Description: HIV-1 replication in MT2 cell line with 30% human serum (RT activity in supernatant). It counts as cell-based. The note with it: Human immunodeficiency virus 1, 120 h, MT2 cells, day 5 after infection, average if tested more than once, read-out: MT2 (HIVIIIB) with human serum IC50 range.

Consider `C=C(C)[C@@H]1CC[C@]2(NC(=O)NC(=O)OC)CC[C@]3(C)[C@H](CC[C@@H]4[C@@]5(C)CC[C@H](OC(=O)CC(C)(C)C(=O)O)C(C)(C)[C@@H]5CC[C@]43C)[C@@H]12` [Cpd 11-1, 3β-O-(3′,3′-Dimethylsuccinyl)-17β-[N′-(methoxycarbonyl)ureido]-28-norlup-20(29)-ene], for which the IC50 in the assay on HIVIIIB [1] and with HIVIIIB [2] was less than 199 nM in each case.

Consider `C=C(C)[C@@H]1CC[C@]2(NC(=O)N3CCN(C)CC3)CC[C@]3(C)[C@H](CC[C@@H]4[C@@]5(C)CC[C@H](OC(=O)CC(C)(C)C(=O)O)C(C)(C)[C@@H]5CC[C@]43C)[C@@H]12` [Cpd 11-9, 3β-O-(3′,3′-Dimethylsuccinyl)-17β-[(4-methyl-piperazine-1-carbonyl)-amino]-28-norlup-20(29)-ene], for which the IC50 with HIVIIIB [1] and in the assay on HIVIIIB [2] was less than 199 nM in each case.

For `C=C(C)[C@@H]1CC[C@]2(NC(=O)NC)CC[C@]3(C)[C@H](CC[C@@H]4[C@@]5(C)CC[C@H](OC(=O)CC(C)(C)C(=O)O)C(C)(C)[C@@H]5CC[C@]43C)[C@@H]12` [Cpd 11-7, 3β-O-(3′,3′-Dimethylsuccinyl)-17β-[N′-(methyl)ureido]-28-norlup-20(29)-ene], the IC50 in the assay with HIVIIIB [1] and with HIVIIIB [2] was less than 199 nM each time.
